According to the NIST ThermoML archive (doi:10.1021/je800110r):

Conditions: 303.16 K, Liquid, Vibrating tube method

CCCCCCCCCC [decane]
Conditions	mass density [kg/m3]
14288 kPa	733.4
14319 kPa	733.4
14353 kPa	733.4
14376 kPa	733.5
14407 kPa	733.3
14434 kPa	733.6
14457 kPa	733.5
14493 kPa	733.5
14524 kPa	733.5
14547 kPa	733.5
14586 kPa	733.6
14617 kPa	733.7
14640 kPa	733.8
14673 kPa	733.7
14705 kPa	733.6
14734 kPa	733.7
14767 kPa	733.7
14792 kPa	733.7
14822 kPa	733.6
14848 kPa	733.7
14871 kPa	733.8
14896 kPa	733.8
14923 kPa	733.7
14942 kPa	734
14976 kPa	734
14997 kPa	733.8
15016 kPa	733.9
15041 kPa	733.8
15066 kPa	734
15088 kPa	733.9
15110 kPa	734
15133 kPa	734
15151 kPa	734
15180 kPa	734
15209 kPa	734.1
15228 kPa	734.1
15257 kPa	734.1
15283 kPa	733.9
15302 kPa	734.1
15329 kPa	734.1
15355 kPa	734.2
15378 kPa	734.3
15404 kPa	734.2
15434 kPa	734.3
15454 kPa	734.3
15481 kPa	734.3
15504 kPa	734.2
15524 kPa	734.3
15557 kPa	734.3
15584 kPa	734.2
15605 kPa	734.4
15639 kPa	734.4
15669 kPa	734.3
15690 kPa	734.4
15720 kPa	734.3
15744 kPa	734.5
15769 kPa	734.4
15790 kPa	734.3
15814 kPa	734.5
15838 kPa	734.6
15867 kPa	734.4
15889 kPa	734.5
15918 kPa	734.5
15947 kPa	734.5
15968 kPa	734.6
15997 kPa	734.6
16029 kPa	734.6
16050 kPa	734.6
16076 kPa	734.7
16098 kPa	734.8
16123 kPa	734.7
16149 kPa	734.7
16172 kPa	734.7
16206 kPa	734.6
16237 kPa	734.7
16261 kPa	734.7
16288 kPa	734.7
16311 kPa	734.9
16331 kPa	734.8
16355 kPa	734.9
16372 kPa	734.9
16395 kPa	734.8
16413 kPa	734.8
16443 kPa	734.9
16470 kPa	735
16490 kPa	735.1
16511 kPa	734.9
16531 kPa	735.1
16553 kPa	735
16574 kPa	734.9
16600 kPa	735
16618 kPa	735.1
16642 kPa	735
16661 kPa	734.8
16691 kPa	735.2
16715 kPa	735
16733 kPa	735.2
16758 kPa	735.1
16785 kPa	735.2
16800 kPa	735.2
16831 kPa	735.2
16853 kPa	735.2
16878 kPa	735.1
16902 kPa	735.2
16924 kPa	735.2
16940 kPa	735.2
16968 kPa	735.3
16994 kPa	735.3
17016 kPa	735.3
17041 kPa	735.4
17063 kPa	735.4
17084 kPa	735.4
17107 kPa	735.3
17129 kPa	735.4
17149 kPa	735.5
17181 kPa	735.4
17207 kPa	735.3
17225 kPa	735.6
17252 kPa	735.5
17278 kPa	735.6
17298 kPa	735.5
17331 kPa	735.5
17354 kPa	735.5
17377 kPa	735.5
17400 kPa	735.5
17419 kPa	735.5
17449 kPa	735.7
17479 kPa	735.7
17503 kPa	735.7
17533 kPa	735.6
17557 kPa	735.7
17581 kPa	735.7
17601 kPa	735.8
17625 kPa	735.8
17645 kPa	735.7
17673 kPa	735.9
17693 kPa	735.8
17724 kPa	735.9
17745 kPa	735.8
17773 kPa	735.9
17801 kPa	735.9
17825 kPa	735.9
17850 kPa	735.9
17878 kPa	735.9
17909 kPa	736
17931 kPa	735.9
17959 kPa	736
17977 kPa	736.1
18013 kPa	736
18041 kPa	736.1
18063 kPa	736.1
18092 kPa	736.1
18122 kPa	736
18144 kPa	736.1
18169 kPa	736.2
18195 kPa	736.2
18227 kPa	736.2
18253 kPa	736.1
18275 kPa	736.3
18304 kPa	736.2
18334 kPa	736.3
18356 kPa	736.2
18390 kPa	736.2
18413 kPa	736.4
18436 kPa	736.4
18466 kPa	736.3
18489 kPa	736.3
18523 kPa	736.4
18546 kPa	736.4
18569 kPa	736.4
18595 kPa	736.4
18614 kPa	736.5
18641 kPa	736.5
18664 kPa	736.5
18699 kPa	736.5
18738 kPa	736.5
18762 kPa	736.5
18789 kPa	736.5
18820 kPa	736.6
18843 kPa	736.6
18883 kPa	736.7
18914 kPa	736.5
18938 kPa	736.8
18962 kPa	736.7
18998 kPa	736.7
19031 kPa	736.7
19060 kPa	736.7
19085 kPa	736.7
19122 kPa	736.9
19159 kPa	736.8
19184 kPa	736.8
19223 kPa	736.9
19247 kPa	736.9
19269 kPa	736.8
19302 kPa	736.9
19335 kPa	737
19360 kPa	737
19383 kPa	737
19412 kPa	737
19434 kPa	737
19456 kPa	737
19477 kPa	736.9
19498 kPa	737.1
19522 kPa	737.1
19544 kPa	737.2
19566 kPa	737.2
19587 kPa	737.1
19612 kPa	737
19634 kPa	737.2
19656 kPa	737.1
19678 kPa	737.2
19703 kPa	737.3
19725 kPa	737.3
19748 kPa	737.3
19771 kPa	737.2
19794 kPa	737.2
19817 kPa	737.2
19841 kPa	737.2
19862 kPa	737.2
19880 kPa	737.3
19906 kPa	737.3
19925 kPa	737.4
19938 kPa	737.4
19956 kPa	737.4
19976 kPa	737.4
19997 kPa	737.4
20013 kPa	737.5
20034 kPa	737.3
20052 kPa	737.5
20073 kPa	737.5
20089 kPa	737.5
20104 kPa	737.4
20123 kPa	737.5
20143 kPa	737.6
20164 kPa	737.5
20180 kPa	737.6
20201 kPa	737.5
20222 kPa	737.6
20238 kPa	737.6
20259 kPa	737.6
20280 kPa	737.6
20293 kPa	737.7
20307 kPa	737.6
20323 kPa	737.7
20347 kPa	737.7
20369 kPa	737.7
20396 kPa	737.7
20420 kPa	737.6
20439 kPa	737.7
20461 kPa	737.7
20477 kPa	737.6
20501 kPa	737.8
20529 kPa	737.7
20545 kPa	737.7
20567 kPa	737.8
20586 kPa	737.9
20606 kPa	737.8
20625 kPa	737.8
20650 kPa	737.9
20667 kPa	737.9
20683 kPa	737.9
20706 kPa	738
20728 kPa	737.9
20745 kPa	738
20764 kPa	738
20787 kPa	738.1
20810 kPa	738
20827 kPa	738
20846 kPa	738
20863 kPa	738
20880 kPa	738
20897 kPa	738
20911 kPa	738.1
